# Entries after “also recorded” stand apart in the source; their conditions may differ.
# Legend:
# [1] = test system: WIF-1; conditions: Colon-Ca-Zelllinien; cited from earlier work
# [2] = test system: Polyposis-Primärgewebe; experiment: Cytokine release from polyposis primary tissue; type: cell-based, Mensch; conditions: incubation of primary tissue
# [3] = test system: beta-Catenin; experiment: Anti-(active-)beta-catenin immunohistochemistry on polyp single-cell suspensions (chamber slides); type: cell-based, Mensch; conditions: 24 h incubation
# Description: Im entzündlichen Infiltrat des Polyposisgewebes ließ sich immunhistochemisch nukleäres beta-Catenin nachweisen.
# Es wurde eine Anti-Active-beta-Catenin-Immunhistochemie auf mit dem GSK-3-Inhibitor SB216763 für 24 h inkubierter Polyposis-Einzelzellsuspension (Chamber Slide) durchgeführt.
SMILES,Regulation von WIF-1 [1],Ausschüttung von IL-6 [2],Ausschüttung von IL-8 [2],Akkumulation von beta-Catenin im Zytoplasma [3],Translokation von beta-Catenin in den Zellkern [3]
CC(=O)Oc1ccccc1C(=O)O [Acetylsalicylsäure],Hochregulation,–,–,–,–
Cn1cc(C2=C(c3ccc(Cl)cc3Cl)C(=O)NC2=O)c2ccccc21 [SB216763],–,verminderte Ausschüttung,verminderte Ausschüttung,Akkumulation von beta-Catenin im Zytoplasma; also recorded: deutliche Anreicherung,Translokation von beta-Catenin in den Zellkern
